# Data: patent US8575091B1, “Amylin analogues and pharmaceutical compositions thereof” (Novo Nordisk A/S, priority 2012, dated 2013)
# pEC50, pIC50: −log10 of the molar value. Like-named read-outs stand apart in the source and are kept apart here. Numbered stars: 1 amine (or outer) side, 2 acyl side, 3 side chain; on linkers, the order of the positions; unused ones are H or OH. Bridge positions count the residues as written; N and C are the ends. Side chains are listed from the residue outwards. Peptide text beside a SMILES is read from it. * marks the point of attachment. C20 diacid = O=C(O)CCCCCCCCCCCCCCCCCCC(=O)*; γGlu = O=C(O)[C@H](CCC(=O)[*:2])N[*:1]; AEEA = NCCOCCOCC(=O)O
# Experiments:
# [1] = target: T1, human calcitonin receptor (Homo sapiens, UniProt P30988); experiment: Assay (II)a functional assay, human calcitonin receptor (CRE luciferase, BHK cells);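 further: luminescence from a CRE-driven luciferase reporter, read by single photon counting after cells were exposed to test samples for 3 h at 37 °C under 5% CO2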; type: cell-based; settings: read-out: hCTR funct. EC50
# T1 construct: expressed in transfected cells
# T1 sequence (P30988 25-474): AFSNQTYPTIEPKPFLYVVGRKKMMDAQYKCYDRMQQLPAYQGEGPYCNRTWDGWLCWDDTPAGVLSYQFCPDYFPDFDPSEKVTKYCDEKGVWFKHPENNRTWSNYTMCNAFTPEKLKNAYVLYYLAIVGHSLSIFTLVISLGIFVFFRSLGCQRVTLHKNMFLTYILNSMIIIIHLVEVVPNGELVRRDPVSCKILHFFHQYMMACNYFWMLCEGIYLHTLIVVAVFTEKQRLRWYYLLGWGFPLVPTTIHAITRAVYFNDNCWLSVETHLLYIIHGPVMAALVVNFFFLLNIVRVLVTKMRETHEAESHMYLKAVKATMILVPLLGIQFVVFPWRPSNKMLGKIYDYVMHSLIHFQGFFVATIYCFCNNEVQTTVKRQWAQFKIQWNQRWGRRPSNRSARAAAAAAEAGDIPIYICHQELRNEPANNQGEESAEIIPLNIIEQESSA
# [2] = target: T1, human calcitonin receptor; experiment: Assay (VII) binding to the human calcitonin receptor (SPA, 125I-Calcitonin); settings: read-out: hCTR bind IC50;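 further: cell membranes coupled to SPA beads, competitive displacement read by scintillation counting, IC50 derived from a one-site competition fit as a measure of receptor affinity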
# [3] = target: T2, human amylin receptor (amylin 3(a) receptor: human calcitonin receptor + RAMP-3) (Homo sapiens, UniProt O60896+P30988); experiment: Assay (II)a functional assay, human amylin receptor (CRE luciferase, BHK cells); type: cell-based; settings: for pEC50: read-out: hAmylin-R funct. EC50
# T2 construct: expressed in transfected cells
# T2 sequence (P30988 25-474): T1 sequence (P30988 25-474)
# T2 sequence (O60896 24-148 partner): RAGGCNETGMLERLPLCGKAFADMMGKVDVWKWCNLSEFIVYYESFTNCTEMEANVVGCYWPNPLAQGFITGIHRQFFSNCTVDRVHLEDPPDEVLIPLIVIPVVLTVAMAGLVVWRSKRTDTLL
# human amylin receptor = target: T3, human amylin receptor (Homo sapiens, UniProt O60896+P30988); experiment: Assay (V) binding to the human amylin receptor (SPA, 125I-rat amylin); settings: for pIC50: human amylin receptor membranes, SPA, read-out: hAmylin-R bind IC50
# T3 construct: expressed in transfected cells
# T3 sequence (P30988 25-474): T1 sequence (P30988 25-474)
# T3 sequence (O60896 24-148 partner): T2 sequence (O60896 24-148 partner)
# Summary of the method: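 IC50, taken as receptor affinity, came from one-site binding competition analysis of scintillation proximity counts. Amylin 3(a)/CRE-luc cell membranes (35 ng/μL final) were mixed with SPA beads (0.05 mg/well) in 50 mM Hepes pH 7.4 containing CaCl2, MgCl2, 0.1% OA and 0.02% Tween20.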
# [4] = Table 6, human functional selectivity (hCTR EC50 / hAmylin-R EC50)
# [5] = Table 6a, human functional selectivity (hCTR EC50 / hAmylin-R EC50), at least 5
# [6] = Table 6j, hCTR funct. EC50 / hAmylin-R funct. EC50
# [7] = Table 6k, hCTR funct. EC50 / hAmylin-R funct. EC50
# [8] = functional assay, human amylin receptor
# [9] = Table 7b, human calcitonin receptor binding IC50 divided by human amylin receptor binding IC50
# [10] = human binding ratio, included for comparison
pEC50 [1],pIC50 [2],"Ratio hCT/hAmylin funct. [3, 4]","Ratio hCT/hAmylin funct. [3, 5]","Ratio hCT/hAmylin funct. [3, 6]","Ratio hCT/hAmylin funct. [3, 7]","pEC50 [3, 8]",pIC50 (human amylin receptor),"Ratio hCT/hAmylin funct. ([3]; Table 6i, hCTR funct. EC50 / hAmylin-R funct. EC50)","pEC50 ([3]; Table 6i, human amylin receptor functional)",Ratio hCT/hAmylin binding (human amylin receptor; [9]),Ratio hCT/hAmylin binding (human amylin receptor; [10]),"pEC50 ([3]; Table 6j, human amylin receptor functional)","Ratio hCT/hAmylin binding (human amylin receptor; Table 7c, human calcitonin receptor binding IC50 divided by human amylin receptor binding IC50)",SMILES
9.05,8.02,,,,,10.06,9.71,,,,,,,CC[C@H](C)[C@H](NC(=O)[C@H](C)NC(=O)CNC(=O)[C@H](Cc1ccccc1)NC(=O)[C@H](CC(N)=O)NC(=O)[C@@H]1CCCN1C(=O)[C@H](CO)NC(=O)[C@H](CO)NC(=O)[C@H](Cc1c[nH]cn1)NC(=O)[C@H](CCCNC(=N)N)NC(=O)[C@H](CC(C)C)NC(=O)[C@H](Cc1ccccc1)NC(=O)[C@H](CC(N)=O)NC(=O)[C@H](C)NC(=O)[C@H](CC(C)C)NC(=O)[C@H](CCCNC(=N)N)NC(=O)[C@H](CCC(N)=O)NC(=O)[C@@H](NC(=O)[C@H](C)NC(=O)[C@@H]1CSSC[C@H](NC(=O)[C@H](CCCNC(=N)N)NC(=O)CNC(=O)CC[C@H](NC(=O)CCCCCCCCCCCCCCCCCCC(=O)O)C(=O)O)C(=O)N[C@@H](CC(N)=O)C(=O)N[C@@H]([C@@H](C)O)C(=O)N[C@@H](C)C(=O)N[C@@H]([C@@H](C)O)C(=O)N1)[C@@H](C)O)C(=O)N1CCC[C@H]1C(=O)N[C@@H](CO)C(=O)N[C@@H](CO)C(=O)N[C@H](C(=O)N[C@@H](CC(N)=O)C(=O)N[C@H](C(=O)NCC(=O)N[C@@H](CO)C(=O)N[C@@H](CC(N)=O)C(=O)N[C@H](C(=O)N[C@@H](Cc1ccc(O)cc1)C(N)=O)[C@@H](C)O)C(C)C)[C@@H](C)O [Example 46] ({C20 diacid-γGlu}-GRCNTATCATQRLANFLRHSSPNFGAIPSSTNVGSNTY-NH2; disulfide 3-8)
8.62,7.59,28.0,28.0,28.0,28.0,10.07,9.75,,,,,,,CC[C@H](C)[C@H](NC(=O)[C@H](C)NC(=O)CNC(=O)[C@H](Cc1ccccc1)NC(=O)[C@H](CC(N)=O)NC(=O)[C@@H]1CCCN1C(=O)[C@H](CO)NC(=O)[C@H](CO)NC(=O)[C@H](Cc1c[nH]cn1)NC(=O)[C@H](CCCNC(=N)N)NC(=O)[C@H](CC(C)C)NC(=O)[C@H](Cc1ccccc1)NC(=O)[C@H](Cc1c[nH]cn1)NC(=O)[C@H](C)NC(=O)[C@H](CC(C)C)NC(=O)[C@H](CCCNC(=N)N)NC(=O)[C@H](CCC(N)=O)NC(=O)[C@@H](NC(=O)[C@H](C)NC(=O)[C@@H]1CSSC[C@H](NC(=O)[C@@H](N)CCCCNC(=O)CC[C@H](NC(=O)CC[C@H](NC(=O)CCCCCCCCCCCCCCCCCCC(=O)O)C(=O)O)C(=O)O)C(=O)N[C@@H](CC(N)=O)C(=O)N[C@@H]([C@@H](C)O)C(=O)N[C@@H](C)C(=O)N[C@@H]([C@@H](C)O)C(=O)N1)[C@@H](C)O)C(=O)N1CCC[C@H]1C(=O)N[C@@H](CO)C(=O)N[C@@H](CO)C(=O)N[C@H](C(=O)N[C@@H](CC(N)=O)C(=O)N[C@H](C(=O)NCC(=O)N[C@@H](CO)C(=O)N[C@@H](CC(N)=O)C(=O)N[C@H](C(=O)N[C@@H](Cc1ccc(O)cc1)C(N)=O)[C@@H](C)O)C(C)C)[C@@H](C)O [Example 92]

# More lines, now with the values behind:
SMILES,pEC50 [1],pIC50 [2],"Ratio hCT/hAmylin funct. [3, 4]","Ratio hCT/hAmylin funct. [3, 5]","Ratio hCT/hAmylin funct. [3, 6]","Ratio hCT/hAmylin funct. [3, 7]","pEC50 [3, 8]",pIC50 (human amylin receptor),"Ratio hCT/hAmylin funct. ([3]; Table 6i, hCTR funct. EC50 / hAmylin-R funct. EC50)","pEC50 ([3]; Table 6i, human amylin receptor functional)",Ratio hCT/hAmylin binding (human amylin receptor; [9]),Ratio hCT/hAmylin binding (human amylin receptor; [10]),"pEC50 ([3]; Table 6j, human amylin receptor functional)","Ratio hCT/hAmylin binding (human amylin receptor; Table 7c, human calcitonin receptor binding IC50 divided by human amylin receptor binding IC50)"
CC[C@H](C)[C@H](NC(=O)[C@H](C)NC(=O)CNC(=O)[C@H](Cc1ccccc1)NC(=O)[C@H](CC(N)=O)NC(=O)[C@@H]1CCCN1C(=O)[C@H](CO)NC(=O)[C@H](CO)NC(=O)[C@H](Cc1c[nH]cn1)NC(=O)[C@H](CCCNC(=N)N)NC(=O)[C@H](CC(C)C)NC(=O)[C@H](Cc1ccccc1)NC(=O)[C@H](CC(N)=O)NC(=O)[C@H](C)NC(=O)[C@H](CC(C)C)NC(=O)[C@H](CCCNC(=N)N)NC(=O)[C@H](CCC(N)=O)NC(=O)[C@@H](NC(=O)[C@H](C)NC(=O)[C@@H]1CSSC[C@H](NC(=O)[C@@H](N)CCCCNC(=O)COCCOCCNC(=O)COCCOCCNC(=O)CC[C@H](NC(=O)CCCCCCCCCCCCCCCCCCC(=O)O)C(=O)O)C(=O)N[C@@H](CC(N)=O)C(=O)N[C@@H]([C@@H](C)O)C(=O)N[C@@H](C)C(=O)N[C@@H]([C@@H](C)O)C(=O)N1)[C@@H](C)O)C(=O)N1CCC[C@H]1C(=O)N[C@@H](CO)C(=O)N[C@@H](CO)C(=O)N[C@H](C(=O)N1CCC[C@H]1C(=O)N[C@H](C(=O)NCC(=O)N[C@@H](CO)C(=O)N[C@@H](CC(N)=O)C(=O)N[C@H](C(=O)N[C@@H](Cc1ccc(O)cc1)C(N)=O)[C@@H](C)O)C(C)C)[C@@H](C)O [Example 96],8.42,7.88,21.0,21.0,21.0,21.0,9.74,9.78,,,,,,
CC[C@H](C)[C@H](NC(=O)[C@H](C)NC(=O)CNC(=O)[C@H](Cc1ccccc1)NC(=O)[C@H](CC(N)=O)NC(=O)[C@@H]1CCCN1C(=O)[C@H](CO)NC(=O)[C@H](CO)NC(=O)[C@H](Cc1c[nH]cn1)NC(=O)[C@H](CCCNC(=N)N)NC(=O)[C@H](CC(C)C)NC(=O)[C@H](Cc1ccccc1)NC(=O)[C@H](CCC(=O)O)NC(=O)[C@H](C)NC(=O)[C@H](CC(C)C)NC(=O)[C@H](CCCNC(=N)N)NC(=O)[C@H](CCC(N)=O)NC(=O)[C@@H](NC(=O)[C@H](C)NC(=O)[C@@H]1CSSC[C@H](NC(=O)[C@@H](N)CCCCNC(=O)CC[C@H](NC(=O)CC[C@H](NC(=O)CCCCCCCCCCCCCCCCCCC(=O)O)C(=O)O)C(=O)O)C(=O)N[C@@H](CC(N)=O)C(=O)N[C@@H]([C@@H](C)O)C(=O)N[C@@H](C)C(=O)N[C@@H]([C@@H](C)O)C(=O)N1)[C@@H](C)O)C(=O)N1CCC[C@H]1C(=O)N[C@@H](CO)C(=O)N[C@@H](CO)C(=O)N[C@H](C(=O)N[C@@H](CC(N)=O)C(=O)N[C@H](C(=O)NCC(=O)N1CCC[C@H]1C(=O)N[C@@H](CC(N)=O)C(=O)N[C@H](C(=O)N[C@@H](Cc1ccccc1)C(N)=O)[C@@H](C)O)C(C)C)[C@@H](C)O [Example 127] (H-K([γGlu-γGlu-C20 diacid])CNTATCATQRLAEFLRHSSPNFGAIPSSTNVGPNTF-NH2; disulfide 2-7),8.67,8.56,9.9,9.9,9.9,9.9,,9.82,9.9,9.67,18.0,18.0,,
CC[C@H](C)[C@H](NC(=O)[C@H](C)NC(=O)CNC(=O)[C@H](Cc1ccccc1)NC(=O)[C@H](CC(N)=O)NC(=O)[C@@H]1CCCN1C(=O)[C@H](CO)NC(=O)[C@H](CO)NC(=O)[C@H](Cc1c[nH]cn1)NC(=O)[C@H](CCCNC(=N)N)NC(=O)[C@H](CC(C)C)NC(=O)[C@H](Cc1ccccc1)NC(=O)CNC(=O)[C@H](C)NC(=O)[C@H](CC(C)C)NC(=O)[C@H](CCCNC(=N)N)NC(=O)[C@H](CCC(N)=O)NC(=O)[C@@H](NC(=O)[C@H](C)NC(=O)[C@@H]1CSSC[C@H](NC(=O)[C@@H](N)CCCCNC(=O)COCCOCCNC(=O)CC[C@H](NC(=O)CCCCCCCCCCCCCCCCCCC(=O)O)C(=O)O)C(=O)N[C@@H](CC(N)=O)C(=O)N[C@@H]([C@@H](C)O)C(=O)N[C@@H](C)C(=O)N[C@@H]([C@@H](C)O)C(=O)N1)[C@@H](C)O)C(=O)N1CCC[C@H]1C(=O)N[C@@H](CO)C(=O)N[C@@H](CO)C(=O)N[C@H](C(=O)N1CCC[C@H]1C(=O)N[C@H](C(=O)NCC(=O)N[C@@H](CO)C(=O)N[C@@H](CC(N)=O)C(=O)N[C@H](C(=O)N[C@@H](Cc1ccc(O)cc1)C(N)=O)[C@@H](C)O)C(C)C)[C@@H](C)O [Example 71] (H-K([AEEA-γGlu-C20 diacid])CNTATCATQRLAGFLRHSSPNFGAIPSSTPVGSNTY-NH2; disulfide 2-7),9.28,8.81,9.4,9.4,9.4,9.4,,10.32,,,32.0,32.0,10.25,32.0
